# Experiments:
# Format in all cases: in vivo
# [1] = test system: Pseudaulacaspis pentagona; assay: Example 24: tea plants treated against Pseudaulacaspis pentagona; details: crawlers on tea plants, % a.i.: Supracide EC 0.04, I-4 0.01
# Method: In nine replications, about 7-week-old tea plants of the cultivar “Yakubita” are treated against Pseudaulacaspis pentagona. Here, the active compound Example (I-4) (200 SC) is tested against the commercial standard Supracide EC (400 EC) at the stated application rates. The application is carried out using a sprayer operated with pressurized air. Evaluation is carried out 16 and 35 days after the treatment by rating the kill of the crawlers on the plants.
# [2] = test system: Macrosiphum euphorbiae; assay: Example 46: head lettuce treated against Macrosiphum euphorbiae; details: nymphs on plants, g a.i./ha: endosulfan 1120, I-4 48
# Method: In four replications, plots of a size of about 33 m^2 with head lettuce of the cultivar “PIC 714” are treated against Aulacorthum solani, Macrosiphum euphorbiae and Myzus persicae. The application is carried out using a tractor sprayer. Here, the active compound Example (I-4) (240 SC), in a tank mix with 0.2% a.i. of rapeseed oil methyl ester (500 EW), is tested against the commercial standard endosulfan (360 EC), at the stated application rates. The application rate is 187 l of water/ha. Two treatments are carried out, at an interval of 22 days.
# Evaluation is carried out 8, 22, 30 and 40 days after the first treatment by rating the kill of the nymphs on the plants.
# [3] = test system: Ceroplastes rubens; assay: Example 12: satsuma trees treated against Ceroplastes rubens; details: 41 days after treatment; live animals counted, Henderson and Tilton; satsuma tree; % a.i.: buprofezin 0.025, I-4 0.0072
# Method: In three replications, in each case one about 4-year-old satsuma tree of the cultivar “Nankan 20” is treated against Ceroplastes rubens. Here, the active compound Example (I-4) (240 SC) in a tank mix with 0.1% of rapeseed oil methyl ester (500 EW) at the stated application rate is tested against the commercial standard buprofezin (25 WP) at the stated application rate. The application is carried out using a motor-operated knapsack sprayer. Here, treatment is carried out using an application rate of 400 l of water/ha.
# Evaluation is carried out before and 41 days after the treatment by counting the live animals. The efficacy in percent is then calculated according to Henderson and Tilton.
# [4] = test system: Quadraspidiotus perniciosus; assay: Example 17: apple trees treated against San Jose scale louse; details: 43 days after last of two treatments, on shoots, g a.i./ha/m crown height: Dursban 223, I-4 72
# Method: In three replications, four about 18-year-old apple trees of the cultivar “Red Chief” are treated against the San Jose scale louse Quadraspidiotus perniciosus. Two applications are carried out at an interval of 15 days using a motor-operated barrow-mounted sprayer. Here, the active compound Example (I-4) (240 SC) is applied in a tank mix with 0.2% a.i. of rapeseed oil methyl ester (500 EW) at the stated application rate and the commercial standard Dursban (446 EC) is applied at the stated application rate. The application rate is 1500 l of water/ha.
# Evaluation is carried out 43 days after the last treatment by rating the kill on the shoots.
# [5] = test system: Rhodobium porosum; assay: Example 55: strawberry plants treated against Rhodobium porosum; details: nymphs on strawberry plants, g a.i./ha: Calypso 120, I-4 75
# Method: In four replications, plots of a size of about 3 m^2 with 3-week-old strawberry plants are treated against Macrosiphum euphorbiae and Rhodobium porosum. The application is carried out using a knapsack sprayer operated with pressurized air. Here, the active compound Example (I-4) (150 OD) and the commercial standard Calypso (480 SC) are tested at the stated application rates. Here, the standard is sprayed as a tank mix with 0.03% of Motto (adjuvant). The application rate is 500 l of water/ha.
# Evaluation is carried out 7 and 14 days after the second treatment by rating the kill of the nymphs on the plants.
# [6] = test system: Bemisia tabaci; assay: Example 38: melons treated against Bemisia tabaci; details: nymphs on leaves, g a.i./ha: Confidor 100, I-4 72
# Method: In three replications, plots of a size of about 7.5 m^2 with melons of the cultivar “Piel DE Sapo” are treated against Bemisia tabaci. The application is carried out with a motor-operated knapsack sprayer. Here, the active compound Example (I-4) (240 SC), in a tank mix with 0.1% of a.i. of rapeseed oil methyl ester (500 EW), and the commercial standard Confidor (200 SL) are applied at the stated application rates. Two applications are carried out, at an interval of 7 days and at an application rate of 233 l of water/ha.
# Evaluation is carried out 7 and 15 days after the second treatment by rating the kill of the animals (nymphs) on the leaves.
# [7] = test system: Planococcus spp.; assay: Example 29: vines treated against Planococcus spp.; details: larvae on grapes, rate %/1: Dursban 0.096, I-4 0.0096
# Method: In three replications, in plots of a size of 54 m^2, about 10-year-old vines of the cultivar “Napoleon” are treated against Planococcus spp. The application is carried out using a knapsack sprayer. Here, the active compound Example (I-4) (240 SC), in a tank mix with 0.1% a.i. of rapeseed oil methyl ester (500 EW), is tested against the commercial standard Dursban (480 EC), at the stated application rates. The application rate is 864 l of water/ha. Two treatments are carried out, at an interval of 19 days.
# Evaluation is carried out 16 and 38 days after the second treatment by rating the kill of the larvae on the grapes.
# [8] = test system: Selenaspidius articulatus; assay: Example 19: orange trees treated against Selenaspidius articulatus; details: 100 d after treatment, on leaves, % a.i.: methidathion 0.05, I-9 0.0288, I-4 0.0144
# Method: In three replications, 3-year-old orange trees of the cultivar “Pera natal” are treated against Selenaspidius articulatus. The application is carried out using a motor-operated knapsack sprayer. Here, the active compounds Example (I-9) (240 SC) and Example (I-4) (240 SC) at the stated application rate are tested against the standard methidathion (400 EC) in the stated amounts, applied once. The application rate is 3.3 l of water per tree.
# Evaluation is carried out 100 days after the treatment by rating the kill on the leaves.
compound,measurement,setting,value
CCOC(=O)OC1=C(c2cc(C)ccc2C)C(=O)NC12CCC(OC)CC2 (stereo not drawn) [Example (I-4)],Kill (%) 16 d,[1]; 16 d after treatment,81.8%
same,Kill (%) 35 d,[1]; 35 d after treatment,75%
same,Kill (%) 8 d,[2]; 8 d after first of two treatments,95%
same,Kill (%) 22 d,[2]; 22 d after first of two treatments,100%
same,Kill (%) 30 d,[2]; 30 d after first of two treatments,100%
same,Kill (%) 40 d,[2]; 40 d after first of two treatments,96%
same,Effect (%),[3],98%
same,Kill (%),[4],90.4%
same,Rhodobium porosum Kill (%) 7 d,[5]; 7 d after second treatment,97%
same,Rhodobium porosum Kill (%) 14 d,[5]; 14 d after second treatment,96%
same,Kill (%) 7 d,[6]; 7 d after second treatment,85.3%
same,Kill (%) 15 d,[6]; 15 d after second treatment,95.5%
same,Kill (%) 16 d,[7]; 16 d after second treatment,94.4%
same,Kill (%) 38 d,[7]; 38 d after second treatment,91.9%
same,Kill (%) 100 d,[8],70%
